Measurements published in the NIST ThermoML archive (doi:10.1016/j.jct.2015.08.036).

Columns and labels:
[1] = xn = mol fraction of the nth substance listed; details: 100 kPa, Liquid, x2 = 0.25; for electrical conductivity: Alternating current cell with electrodes; for viscosity: Capillary tube (Ostwald / Ubbelohde) method; for mass density: Pycnometric method
[2] = 101.33 kPa, Liquid; for viscosity: Capillary tube (Ostwald / Ubbelohde) method; for mass density: Pycnometric method

CC(N)=O [ethanamide] + N#C[S-].[K+]
[1]
Details	electrical conductivity [S/m]	mass density [kg/m3]	viscosity [mPa·s]
298.15 K	0.117	1197.1	190.16
303.15 K	0.205	1193.7	127.31
308.15 K	0.311	1190.5	88.81
313.15 K	0.429	1187.7	63.77
318.15 K	0.574	1184.5	48.11

CCO [ethanol]
[2]
Details	mass density [kg/m3]	viscosity [mPa·s]
298.15 K	785.2	1.096
303.15 K	781	1.003
308.15 K	776.7	0.914
313.15 K	772.3	0.834
318.15 K	766.3	0.764
